In PubChem BioAssay (NCI):
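Tested at 5 concentrations; 48 h exposure; 96-well plates; endpoints linearly interpolated, else capped at highest concentration. The concentration for full growth arrest is given as TGI.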

Key:
Experiment in all cases: growth of human tumour cells (NCI), 48 h
[1] = system: CCRF-CEM leukemia
[2] = system: UACC-62 melanoma
[3] = system: SK-MEL-2 melanoma
[4] = system: LOX IMVI melanoma
[5] = system: HCT-15 colon
[6] = system: NCI-H522 lung
[7] = system: RXF 393 renal
[8] = system: T-47D breast
[9] = system: 786-0 renal
[10] = system: SN12C renal
[11] = system: SNB-19 CNS
[12] = system: SF-268 CNS
[13] = system: M14 melanoma
[14] = system: SW-620 colon
[15] = system: SR leukemia
[16] = system: IGROV1 ovarian
[17] = system: DU-145 prostate
[18] = system: TK-10 renal
[19] = system: HL-60(TB) leukemia
[20] = system: MDA-N
[21] = system: HS 578T breast
[22] = system: HOP-92 NSCLC
[23] = system: PC-3 prostate
[24] = system: OVCAR-4 ovarian
[25] = system: COLO 205 colon
[26] = system: U251 CNS
[27] = system: CAKI-1 renal
[28] = system: SK-OV-3 ovarian
[29] = system: HT29 colon
[30] = system: MOLT-4 leukemia
[31] = system: A549 NSCLC
[32] = system: SK-MEL-28 melanoma
[33] = system: MDA-MB-435
[34] = system: NCI-H23 lung
[35] = system: BT-549 breast
[36] = system: KM12 colon
[37] = system: HOP-62 NSCLC
[38] = system: OVCAR-8 ovarian
[39] = system: K-562 leukemia
[40] = system: ACHN renal
[41] = system: SF-295 CNS
[42] = system: SK-MEL-5 melanoma
[43] = system: OVCAR-5 ovarian
[44] = system: HCC-2998 colon
[45] = system: MDA-MB-231 breast
[46] = system: EKVX NSCLC
[47] = system: A498 renal
[48] = system: NCI/ADR-RES ovarian
[49] = system: RPMI-8226 leukemia
[50] = system: NCI-H226 lung
[51] = system: HCT-116 colon
[52] = system: MCF7 breast
[53] = system: UO-31 renal
[54] = system: OVCAR-3 ovarian
[55] = system: MALME-3M melanoma
[56] = system: NCI-H460 lung
[57] = system: UACC-257 melanoma
[58] = system: SF-539 CNS
[59] = system: SNB-75 CNS
[60] = system: DMS 273 small cell lung
[61] = system: LXFL 529 NSCLC
[62] = system: HOP-18 NSCLC
[63] = system: SNB-78 CNS
[64] = system: DMS 114 small cell lung
[65] = system: M19-MEL melanoma
[66] = system: KM20L2 colon
[67] = system: DLD-1 colon
[68] = system: XF 498 CNS

Compound: Clc1cc2c(c(CSC3=NCN(CC4CC4)CN3)c1)OCOC2
- TGI [1]: 27.2 µM
- TGI [2]: 35.3 µM
- TGI [3]: 35.4 µM
- TGI [4]: > 100 µM
- TGI [5]: > 100 µM
- TGI [6]: 30.1 µM
- TGI [7]: 36.9 µM
- TGI [8]: 62.2 µM
- TGI [9]: 52.2 µM
- TGI [10]: > 100 µM
- TGI [11]: > 100 µM
- TGI [12]: 98.3 µM
- TGI [13]: 27.9 µM
- TGI [14]: 65.1 µM
- TGI [15]: 42.2 µM
- TGI [16]: > 100 µM
- TGI [17]: > 100 µM
- TGI [18]: 40.8 µM
- TGI [19]: 33.7 µM
- TGI [20]: 38.6 µM
- TGI [21]: > 100 µM
- TGI [22]: > 100 µM
- TGI [23]: 65.8 µM
- TGI [24]: > 100 µM
- TGI [25]: 28.4 µM
- TGI [26]: 53.1 µM
- TGI [27]: > 100 µM
- TGI [28]: 67.1 µM
- TGI [29]: 63.1 µM
- TGI [30]: 64 µM
- TGI [31]: 77.6 µM
- TGI [32]: 38.3 µM
- TGI [33]: 74.3 µM
- TGI [34]: 39.3 µM
- TGI [35]: 51.5 µM
- TGI [36]: > 100 µM
- TGI [37]: 86.7 µM
- TGI [38]: > 100 µM
- TGI [39]: > 100 µM
- TGI [40]: 45.6 µM
- TGI [41]: > 100 µM
- TGI [42]: 32.2 µM
- TGI [43]: 48.9 µM
- TGI [44]: 28.4 µM
- TGI [45]: 48 µM
- TGI [46]: 53.4 µM
- TGI [47]: 58.2 µM
- TGI [48]: 72.9 µM
- TGI [49]: 38.2 µM
- TGI [50]: 48.9 µM
- TGI [51]: 42.8 µM
- TGI [52]: 93.8 µM
- TGI [53]: 37.1 µM
- TGI [54]: > 100 µM
- TGI [55]: 34.2 µM
- TGI [56]: 39.6 µM
- TGI [57]: 33.1 µM
- TGI [58]: 43.4 µM
- TGI [59]: 39.6 µM

Compound: COc1ccc2[nH]c(Cl)c(/C=C3/C(=O)Nc4cc(C)c(OC)cc43)c2c1
- TGI [1]: 19.1 µM
- TGI [2]: 15.2 µM
- TGI [3]: 7.8 µM
- TGI [4]: 17.5 µM
- TGI [5]: 12.9 µM
- TGI [6]: 9.62 µM
- TGI [7]: 27.9 µM
- TGI [8]: 30.4 µM
- TGI [9]: 19.8 µM
- TGI [10]: 20.1 µM
- TGI [11]: 22.2 µM
- TGI [12]: 19.3 µM
- TGI [13]: 14.2 µM
- TGI [14]: 18.1 µM
- TGI [15]: > 100 µM
- TGI [16]: 17.1 µM
- TGI [17]: 29.4 µM
- TGI [18]: 21.3 µM
- TGI [19]: 6.08 µM
- TGI [20]: 3.5 µM
- TGI [21]: 20.9 µM
- TGI [22]: 28.9 µM
- TGI [23]: 16.1 µM
- TGI [25]: 5.9 µM
- TGI [26]: 18 µM
- TGI [27]: 21.7 µM
- TGI [28]: 9.4 µM
- TGI [29]: 15 µM
- TGI [30]: > 100 µM
- TGI [31]: 92.6 µM
- TGI [32]: 22.1 µM
- TGI [33]: 3.51 µM
- TGI [34]: 19 µM
- TGI [35]: 21.5 µM
- TGI [36]: 23.2 µM
- TGI [37]: 18.5 µM
- TGI [38]: 25.7 µM
- TGI [39]: > 100 µM
- TGI [40]: 21.4 µM
- TGI [41]: 6 µM
- TGI [42]: 6.32 µM
- TGI [43]: 27.2 µM
- TGI [44]: 17.2 µM
- TGI [45]: 20.6 µM
- TGI [46]: 22.7 µM
- TGI [47]: 19.2 µM
- TGI [48]: 6.47 µM
- TGI [49]: > 100 µM
- TGI [51]: 15.7 µM
- TGI [52]: 14.4 µM
- TGI [53]: 28.5 µM
- TGI [54]: 6.46 µM
- TGI [55]: 18.2 µM
- TGI [56]: 12.9 µM
- TGI [57]: 23.6 µM
- TGI [58]: 4.8 µM
- TGI [59]: 23.4 µM

Compound: C(=N\OCc1ccccc1)/c1ncccc1C1OCCO1
- TGI [1]: > 100 µM
- TGI [2]: > 100 µM
- TGI [3]: > 100 µM
- TGI [4]: > 100 µM
- TGI [5]: > 100 µM
- TGI [6]: > 100 µM
- TGI [7]: > 100 µM
- TGI [9]: > 100 µM
- TGI [10]: > 100 µM
- TGI [11]: > 100 µM
- TGI [12]: > 100 µM
- TGI [13]: > 100 µM
- TGI [14]: > 100 µM
- TGI [15]: > 100 µM
- TGI [16]: > 100 µM
- TGI [18]: > 100 µM
- TGI [19]: > 100 µM
- TGI [22]: > 100 µM
- TGI [60]: > 100 µM
- TGI [24]: > 100 µM
- TGI [25]: > 100 µM
- TGI [26]: > 100 µM
- TGI [27]: > 100 µM
- TGI [28]: > 100 µM
- TGI [29]: > 100 µM
- TGI [30]: > 100 µM
- TGI [61]: > 100 µM
- TGI [31]: > 100 µM
- TGI [32]: > 100 µM
- TGI [34]: > 100 µM
- TGI [36]: > 100 µM
- TGI [37]: > 100 µM
- TGI [38]: > 100 µM
- TGI [39]: > 100 µM
- TGI [40]: > 100 µM
- TGI [62]: > 100 µM
- TGI [41]: > 100 µM
- TGI [42]: > 100 µM
- TGI [43]: > 100 µM
- TGI [63]: > 100 µM
- TGI [46]: > 100 µM
- TGI [64]: > 100 µM
- TGI [65]: > 100 µM
- TGI [66]: > 100 µM
- TGI [51]: > 100 µM
- TGI [67]: > 100 µM
- TGI [53]: > 100 µM
- TGI [54]: > 100 µM
- TGI [55]: > 100 µM
- TGI [56]: > 100 µM
- TGI [57]: > 100 µM
- TGI [58]: > 100 µM
- TGI [59]: > 100 µM

Compound: CCCCCC(=O)c1ccc2[nH]c3c(C)cc([N+](=O)[O-])c(C)c3c2c1
- TGI [1]: > 100 µM
- TGI [3]: > 100 µM
- TGI [4]: > 100 µM
- TGI [5]: > 100 µM
- TGI [6]: > 100 µM
- TGI [9]: > 100 µM
- TGI [10]: > 100 µM
- TGI [11]: > 100 µM
- TGI [12]: > 100 µM
- TGI [13]: > 100 µM
- TGI [14]: > 100 µM
- TGI [15]: > 100 µM
- TGI [18]: > 100 µM
- TGI [19]: > 100 µM
- TGI [60]: > 100 µM
- TGI [24]: > 100 µM
- TGI [25]: > 100 µM
- TGI [27]: > 100 µM
- TGI [29]: > 100 µM
- TGI [30]: > 100 µM
- TGI [31]: > 100 µM
- TGI [32]: > 100 µM
- TGI [34]: > 100 µM
- TGI [36]: > 100 µM
- TGI [37]: > 100 µM
- TGI [38]: > 100 µM
- TGI [39]: 92.5 µM
- TGI [40]: > 100 µM
- TGI [41]: > 100 µM
- TGI [68]: > 100 µM
- TGI [42]: > 100 µM
- TGI [43]: > 100 µM
- TGI [44]: > 100 µM
- TGI [63]: > 100 µM
- TGI [46]: > 100 µM
- TGI [64]: > 100 µM
- TGI [65]: > 100 µM
- TGI [49]: > 100 µM
- TGI [50]: > 100 µM
- TGI [51]: > 100 µM
- TGI [53]: > 100 µM
- TGI [54]: > 100 µM
- TGI [55]: > 100 µM
- TGI [56]: > 100 µM
- TGI [57]: > 100 µM
- TGI [58]: > 100 µM
- TGI [59]: > 100 µM
